Values of other authors as cited in patent US10918604B2, “Solid oral dosage forms of eslicarbazepine” (Jubilant Generics Limited, priority 2015, dated 2021).

Conditions: reported in background

For `CC(=O)O[C@H]1Cc2ccccc2N(C(N)=O)c2ccccc21` [Eslicarbazepine acetate, (S)-10-acetoxy-10,11-dihydro-5H-dibenzo[b,f]azepine-5-carboxamide], the solubility in water is listed as “poorly soluble in water”.
